Laboratory results as given in the supplement of paper PMC10307832.

Key:
Experiment in all cases: relative viability (nuclei count vs DMSO), 5 days (fraction); higher = more cells survive
BAY61-3606 + Trametinib = compound: COC1=C(C=C(C=C1)C2=CC3=NC=CN3C(=N2)NC4=C(C=CC=N4)C(=O)N)OC [BAY61-3606] + CC(=O)Nc1cccc(-n2c(=O)n(C3CC3)c(=O)c3c(Nc4ccc(I)cc4F)n(C)c(=O)c(C)c32)c1 [Trametinib] (partner 0.02 µM)
Procedure, shortened: (§1)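 For relative viability, nuclei counts in treated wells were divided by those in vehicle wells. Lung cancer cell lines had been pin-tool dosed in 1536-well plates the day after seeding and cultured for 5 days, then fixed and stained in one step (final 0.05% Triton X-100, 1% formaldehyde, 1 ug/ml Hoechst) and imaged at 4×. Doses were one drug alone or a fixed anchor-drug dose plus five library-drug doses (not always all listed) in √10 steps, and values are duplicate-plate medians.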

BAY61-3606 + Palbociclib = compound: COC1=C(C=C(C=C1)C2=CC3=NC=CN3C(=N2)NC4=C(C=CC=N4)C(=O)N)OC [BAY61-3606] + CC(=O)c1c(C)c2cnc(Nc3ccc(N4CCNCC4)cn3)nc2n(C2CCCC2)c1=O [Palbociclib] (partner 0.5 µM)
Procedure, shortened: as §1

BAY61-3606 + Navitoclax = compound: COC1=C(C=C(C=C1)C2=CC3=NC=CN3C(=N2)NC4=C(C=CC=N4)C(=O)N)OC [BAY61-3606] + CC1(C)CCC(c2ccc(Cl)cc2)=C(CN2CCN(c3ccc(C(=O)NS(=O)(=O)c4ccc(N[C@H](CCN5CCOCC5)CSc5ccccc5)c(S(=O)(=O)C(F)(F)F)c4)cc3)CC2)C1 [Navitoclax] (partner 0.5 µM)
Procedure, shortened: as §1

BAY61-3606 + Linsitinib = compound: COC1=C(C=C(C=C1)C2=CC3=NC=CN3C(=N2)NC4=C(C=CC=N4)C(=O)N)OC [BAY61-3606] + C[C@]1(O)C[C@@H](c2nc(-c3ccc4ccc(-c5ccccc5)nc4c3)c3c(N)nccn32)C1 [Linsitinib] (partner 1 µM)
Procedure, shortened: as §1

Cell Line | relative viability (BAY61-3606 + Trametinib; first compound 0.02 µM) | relative viability (BAY61-3606 + Trametinib; first compound 0.06325 µM) | relative viability (BAY61-3606 + Trametinib; first compound 0.2 µM) | relative viability (BAY61-3606 + Trametinib; first compound 0.6325 µM) | relative viability (BAY61-3606 + Trametinib; first compound 2 µM) | relative viability (BAY61-3606 + Palbociclib; first compound 0.02 µM) | relative viability (BAY61-3606 + Palbociclib; first compound 0.06325 µM) | relative viability (BAY61-3606 + Palbociclib; first compound 0.2 µM) | relative viability (BAY61-3606 + Palbociclib; first compound 0.6325 µM) | relative viability (BAY61-3606 + Palbociclib; first compound 2 µM) | relative viability (BAY61-3606 + Navitoclax; first compound 0.02 µM) | relative viability (BAY61-3606 + Navitoclax; first compound 0.06325 µM) | relative viability (BAY61-3606 + Navitoclax; first compound 0.2 µM) | relative viability (BAY61-3606 + Navitoclax; first compound 0.6325 µM) | relative viability (BAY61-3606 + Navitoclax; first compound 2 µM) | relative viability (BAY61-3606 + Linsitinib; first compound 0.02 µM) | relative viability (BAY61-3606 + Linsitinib; first compound 0.06325 µM) | relative viability (BAY61-3606 + Linsitinib; first compound 0.2 µM) | relative viability (BAY61-3606 + Linsitinib; first compound 0.6325 µM) | relative viability (BAY61-3606 + Linsitinib; first compound 2 µM)
NCI-H2087 | 0.228 | 0.196 | 0.202 | 0.178 | 0.2 | 0.234 | 0.264 | 0.221 | 0.28 | 0.249 | 0.896 | 1.06 | 0.981 | 0.922 | 0.82 | 0.883 | 1.13 | 0.905 | 1.16 | 0.732
COR-L23 | 0.725 | 0.668 | 0.635 | 0.751 | 0.558 | 0.338 | 0.252 | 0.377 | 0.347 | 0.215 | 1.06 | 1.1 | 1.02 | 1.11 | 0.813 | 1.02 | 1.07 | 0.957 | 0.903 | 0.641
BEN | 1.21 | 1.01 | 1.11 | 1.21 | 1.2 | 0.456 | 0.438 | 0.477 | 0.442 | 0.509 | 0.0718 | 0.0633 | 0.0644 | 0.0773 | 0.0651 | 1.04 | 0.805 | 1.06 | 1.01 | 0.793
LK-2 | 0.727 | 0.806 | 0.897 | 0.915 | 0.683 | 0.641 | 0.74 | 0.822 | 0.697 | 0.567 | 0.927 | 0.963 | 0.925 | 0.896 | 0.705 | 0.487 | 0.529 | 0.691 | 0.834 | 0.412
NCI-H520 | 0.685 | 0.704 | 0.751 | 0.85 | 0.644 | 0.218 | 0.246 | 0.254 | 0.265 | 0.22 | 1.29 | 1.11 | 1.24 | 1.1 | 1.04 | 1.14 | 1.04 | 1.08 | 1.16 | 0.94
NCI-H2009 | 0.318 | 0.229 | 0.378 | 0.303 | 0.206 | 0.22 | 0.211 | 0.214 | 0.231 | 0.155 | 1.14 | 1.22 | 1.14 | 1.15 | 1.11 | 1.19 | 1.28 | 1.18 | 1.18 | 1.07
NCI-H1993 | 0.498 | 0.507 | 0.544 | 0.538 | 0.518 | 0.581 | 0.626 | 0.48 | 0.688 | 0.524 | 0.831 | 0.785 | 0.707 | 0.819 | 0.739 | 0.688 | 0.748 | 0.723 | 0.7 | 0.741
HCC-78 | 0.763 | 0.745 | 0.738 | 0.836 | 0.859 | 0.438 | 0.431 | 0.486 | 0.44 | 0.522 | 0.915 | 0.652 | 0.905 | 0.802 | 0.801 | 0.742 | 0.456 | 0.598 | 0.535 | 0.459
